The compounds below were run on MM.1S cells (assay: Proliferation inhibition (IC50) in multiple myeloma cells, cell viability with WST/CCK-8 reagent). Details: Homo sapiens, MM1.S, 72 h, read-out: IC50 (half inhibitory concentration).
Description: Multiple myeloma cell line: MM.1S (B lymphoblast), purchased from ATCC (American Type Culture Collection). Culture medium was RPMI1640 supplemented with 10% FBS and 1% Penicillin-Streptomycin. The cells used were identified as correct cells by STR cells and negative for mycoplasma by routine inspections.
IC50 values of the compounds of the present disclosure were measured using Cell Titer Blue, Cell Titer GLO, or WST reagent from Promega Company. Assay details are as follows: Cells were seeded in 100 μL RPMI1640 complete medium containing serum at a density of 15,000 cells/well.
The experiment was repeated more than three times.
Compound `O=C1CCC(N2Cc3cc(CCCCCCCCNC45CC6CC(CC(C6)C4)C5)ccc3C2=O)C(=O)N1` (centres unmarked) [SIAIS271187, 3-(5-(8-((adamantan-1-yl)amino)octyl)-1-oxoisoindolin-2-yl)piperidine-2,6-dione] has an IC50 of 17 nM.
With `O=C1CCC(N2Cc3c(NCCCCCCCN4CCCCC4)cccc3C2=O)C(=O)N1` (centres unmarked) [SIAIS1220125, 3-(1-oxo-4-((7-(piperidin-1-yl)heptyl)amino)isoindolin-2-yl)piperidine-2,6-dione, reference compound] the IC50 was 697 nM.
For `O=C1CCC(N2C(=O)c3cccc(NCCCCCCCN4CCCCC4)c3C2=O)C(=O)N1` (centres unmarked) [SIAIS1221047, 2-(2,6-dioxopiperidin-3-yl)-4-((7-(piperidin-1-yl)heptyl)amino)isoindoline-1,3-dione, reference compound], the IC50 was 0.78 nM.
`O=C1CCC(N2C(=O)c3ccc(NCCCCCCCNC45CC6CC(CC(C6)C4)C5)cc3C2=O)C(=O)N1` (centres unmarked) [SIAIS1221055, 5-((7-((adamantan-1-yl)amino)heptyl)amino)-2-(2,6-dioxopiperidin-3-yl)isoindoline-1,3-dione] showed an IC50 of 1.43 nM.
For `O=C1CCC(N2C(=O)c3cccc(OCCCCCCCNC45CC6CC(CC(C6)C4)C5)c3C2=O)C(=O)N1` (centres unmarked) [SIAIS1221077, 4-((7-((adamantan-1-yl)amino)heptyl)oxy)-2-(2,6-dioxopiperidin-3-yl)isoindoline-1,3-dione], the IC50 was 5.53 nM.
`O=C1CCC(N2C(=O)c3cccc(OCCCCCCCN4CCCCC4)c3C2=O)C(=O)N1` (centres unmarked) [SIAIS1221079, 2-(2,6-dioxopiperidin-3-yl)-4-((7-(piperidin-1-yl)heptyl)oxy)isoindoline-1,3-dione, reference compound] showed an IC50 of 65.9 nM.
Compound `O=C1CCC(N2Cc3c(NCCCCCCCNC45CC6CC(CC(C6)C4)C5)cccc3C2=O)C(=O)N1` (centres unmarked) [SIAIS1221091, 3-(4-((7-((adamantan-1-yl)amino)heptyl)amino)-1-oxoisoindolin-2-yl)piperidine-2,6-dione] has an IC50 of 1.51 nM.
Work on `O=C1CCC(N2Cc3c(C#CCCCCCCNC45CC6CC(CC(C6)C4)C5)cccc3C2=O)C(=O)N1` (centres unmarked) [SIAIS1221095, 3-(4-(8-((adamantan-1-yl)amino)oct-1-yn-1-yl)-1-oxoisoindolin-2-yl)piperidine-2,6-dione] yielded an IC50 of 2.21 nM.
With `O=C1CCC(N2Cc3c(CCCCCCCCNC45CC6CC(CC(C6)C4)C5)cccc3C2=O)C(=O)N1` (centres unmarked) [SIAIS1221105, 3-(4-(8-((adamantan-1-yl)amino)octyl)-1-oxoisoindolin-2-yl)piperidine-2,6-dione] the IC50 was 0.044 nM.
`O=C1CCC(N2Cc3c(CCCCCCCCN4CCCCC4)cccc3C2=O)C(=O)N1` (centres unmarked) [SIAIS1221107, 3-(1-oxo-4-(8-(piperidin-1-yl)octyl)isoindolin-2-yl)piperidine-2,6-dione, reference compound] was tested, and the IC50 was 3.93 nM.
`O=C1CCC(N2Cc3c(OCCCCCCCN4CCCCC4)cccc3C2=O)C(=O)N1` (centres unmarked) [SIAIS1221109, 3-(1-oxo-4-((7-(piperidin-1-yl)heptyl)oxy)isoindolin-2-yl)piperidine-2,6-dione, reference compound] gave an IC50 of 17.6 nM.
`CC1(C)[C@@H]2CC[C@@]1(C)[C@@H](NCc1ccc(CNc3cccc4c3C(=O)N(C3CCC(=O)NC3=O)C4=O)cc1)C2` (stereo partly drawn) [SIAIS1221173, 2-(2,6-dioxopiperidin-3-yl)-4-((4-((((1R,2S,4R)-1,7,7-trimethylbicyclo[2.2.1]heptan-2-yl)amino)methyl)benzyl)amino)isoindoline-1,3-dione] was tested, and the IC50 was 1.09 nM.
`O=C1CCC(N2Cc3c(OCCCCCCCNC4CCCCC4)cccc3C2=O)C(=O)N1` (centres unmarked) [SIAIS1221187, 3-(4-((7-(cyclohexylamino)heptyl)oxy)-1-oxoisoindolin-2-yl)piperidine-2,6-dione] was tested, and the IC50 was 1.13 nM.
For `CC1(C)[C@@H]2CC[C@@]1(C)[C@@H](NCCCCCCCOc1cccc3c1CN(C1CCC(=O)NC1=O)C3=O)C2` (stereo partly drawn) [SIAIS1221189, 3-(1-oxo-4-((7-(((1R,2S,4R)-1,7,7-trimethylbicyclo[2.2.1]heptan-2-yl)amino)heptyl)oxy)isoindolin-2-yl)piperidine-2,6-dione], the IC50 was 1.2 nM.
For `O=C1CCC(N2Cc3c(CCCCCCCCNC4CCCCC4)cccc3C2=O)C(=O)N1` (centres unmarked) [SIAIS1221193, 3-(4-(8-(cyclohexylamino)octyl)-1-oxoisoindolin-2-yl)piperidine-2,6-dione], the IC50 was 0.854 nM.
In the case of `O=C1CCC(N2Cc3c(CCCCCCCNCC45CC6CC(CC(C6)C4)C5)cccc3C2=O)C(=O)N1` (centres unmarked) [SIAIS1222021, 3-(4-(7-(((adamantan-1-yl)methyl)amino)heptyl)-1-oxoisoindolin-2-yl)piperidine-2,6-dione], the IC50 is reported as 0.781 nM.
Work on `O=C1CCC(N2Cc3c(NCc4ccc(CNC56CC7CC(CC(C7)C5)C6)cc4)cccc3C2=O)C(=O)N1` (centres unmarked) [SIAIS1222025, 3-(4-((4-(((adamantan-1-yl)amino)methyl)benzyl)amino)-1-oxoisoindolin-2-yl)piperidine-2,6-dione] yielded an IC50 of 3.24 nM.
`CN(CCCCCCCCc1cccc2c1CN(C1CCC(=O)NC1=O)C2=O)C12CC3CC(CC(C3)C1)C2` (centres unmarked) [SIAIS1222031, 3-(4-(8-((adamantan-1-yl)(methyl)amino)octyl)-1-oxoisoindolin-2-yl)piperidine-2,6-dione] showed an IC50 of 0.27 nM.
For `O=C1CCC(N2C(=O)c3cccc(NCc4ccc(CNC56CC7CC(CC(C7)C5)C6)cc4)c3C2=O)C(=O)N1` (centres unmarked) [SIAIS1222035, 4-((4-(((adamantan-1-yl)amino)methyl)benzyl)amino)-2-(2,6-dioxopiperidin-3-yl)isoindoline-1,3-dione], the IC50 was 2.46 nM.
`O=C1CCC(N2C(=O)c3cccc(NCCCCCCNCC45CC6CC(CC(C6)C4)C5)c3C2=O)C(=O)N1` (centres unmarked) [SIAIS1222037, 4-((6-(((adamantan-1-yl)methyl)amino)hexyl)amino)-2-(2,6-dioxopiperidin-3-yl)isoindoline-1,3-dione] showed an IC50 of 0.13 nM.
For `O=C1CCC(N2C(=O)c3cccc(NCCCCCCCNC4CCCCC4)c3C2=O)C(=O)N1` (centres unmarked) [SIAIS1222039, 4-((7-(cyclohexylamino)heptyl)amino)-2-(2,6-dioxopiperidin-3-yl)isoindoline-1,3-dione], the IC50 was 0.326 nM.
`CC1(C)[C@@H]2CC[C@@]1(C)[C@@H](NCCCCCCCNc1cccc3c1C(=O)N(C1CCC(=O)NC1=O)C3=O)C2` (stereo partly drawn) [SIAIS1222041, 2-(2,6-dioxopiperidin-3-yl)-4-((7-(((1R,2S,4R)-1,7,7-trimethylbicyclo[2.2.1]heptan-2-yl)amino)heptyl)amino)isoindoline-1,3-dione] showed an IC50 of 0.383 nM.
With `O=C1CCC(N2Cc3c(NCCCCCCCCNC45CC6CC(CC(C6)C4)C5)cccc3C2=O)C(=O)N1` (centres unmarked) [SIAIS1222045, 3-(4-((8-((adamantan-1-yl)amino)octyl)amino)-1-oxoisoindolin-2-yl)piperidine-2,6-dione] the IC50 was 3.78 nM.

Same assay, conditions: Homo sapiens, MM1.S, 72 h, read-out: IC50 (half inhibitory concentration), MM.1S multiple myeloma cells, WST reagent, 72 h treatment
Work on `O=C1CCC(N2C(=O)c3cccc(NCCCCCCCNC45CC6CC(CC(C6)C4)C5)c3C2=O)C(=O)N1` (centres unmarked) [SIAIS1221053, 4-((7-((adamantan-1-yl)amino)heptyl)amino)-2-(2,6-dioxopiperidin-3-yl)isoindoline-1,3-dione] yielded an IC50 of 0.16 ± 0.03 nM.
`O=C1CCC(N2Cc3c(OCCCCCCCNC45CC6CC(CC(C6)C4)C5)cccc3C2=O)C(=O)N1` (centres unmarked) [SIAIS1221111, 3-(4-((7-((adamantan-1-yl)amino)heptyl)oxy)-1-oxoisoindolin-2-yl)piperidine-2,6-dione] showed an IC50 of roughly 0.09 nM.

Same assay, conditions: read-out: IC50 (half inhibitory concentration); MM.1S multiple myeloma cells, WST reagent, 72 h treatment
`O=C1CCC(N2Cc3c(OCCCCCCCNC45CC6CC(CC(C6)C4)C5)cccc3C2=O)C(=O)N1` (centres unmarked) [SIAIS1221111, 3-(4-((7-((adamantan-1-yl)amino)heptyl)oxy)-1-oxoisoindolin-2-yl)piperidine-2,6-dione] showed an IC50 of 0.089 nM.

From patent US20230096517A1, “GLUTARIMIDE SKELETON-BASED COMPOUNDS AND APPLICATION THEREOF” (SHANGHAITECH UNIVERSITY, priority 2020, published 2023)
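Note: MM.1S B-lymphoblast cells at 15,000 per well in 100 µL serum-containing RPMI1640, experiment run more than three times.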
